In ChEMBL document CHEMBL1201862, “PubChem BioAssay data set” (2004):
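Cultured in 96-well plates, cells were exposed to test compound for 48 hours across five concentrations. Abbreviation: GI50, concentration required for 50% inhibition of growth.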 Activity calls are given as the source filed them. No stated cut-off is given here; in the data, active = GI50 up to about 1.1 µM and inactive = higher.

Assays:
Assay in all cases: NCI-60 cell line screen, 48 h
RPMI-8226 = test system: RPMI-8226
PC-3 = test system: PC-3
OVCAR-4 = test system: OVCAR-4
TK-10 = test system: TK-10
EKVX = test system: EKVX
SF-539 = test system: SF-539
ACHN = test system: ACHN
OVCAR-3 = test system: OVCAR-3
HOP-92 = test system: HOP-92
SK-MEL-5 = test system: SK-MEL-5
MDA-N = test system: MDA-N
MCF7 = test system: MCF7
SK-MEL-28 = test system: SK-MEL-28
LOX IMVI = test system: LOX IMVI
OVCAR-8 = test system: OVCAR-8
NCI-H460 = test system: NCI-H460
HCT-116 = test system: HCT-116
NCI/ADR-RES = test system: NCI/ADR-RES
UACC-257 = test system: UACC-257
K562 = test system: K562

Measured: GI50

CCOC(=O)/C(=C\c1c[nH]c2ccccc12)P(=O)(OCC)OCC
inactive: RPMI-8226 33.5 µM | PC-3 17.4 µM | OVCAR-4 23.9 µM | TK-10 42.6 µM | EKVX 59.8 µM | SF-539 21.9 µM | ACHN 41.4 µM | OVCAR-3 19.3 µM | HOP-92 29.2 µM | SK-MEL-5 55.8 µM | MDA-N 35.8 µM | MCF7 50.8 µM | SK-MEL-28 36.8 µM | LOX IMVI 20.6 µM | OVCAR-8 22.3 µM | NCI-H460 24.5 µM | HCT-116 32.9 µM | NCI/ADR-RES 25.3 µM | UACC-257 45.3 µM | K562 50.9 µM

CCOC(=O)[C@@]12C[C@](/C=C/OC)(O[Si](C)(C)C)[C@@]13c1cc(OC)c(OC)cc1CCN3C(=O)C2O (stereo not given in full)
inactive: RPMI-8226 > 100 µM | PC-3 > 100 µM | OVCAR-4 > 100 µM | TK-10 > 100 µM | EKVX > 100 µM | SF-539 > 100 µM | ACHN > 100 µM | OVCAR-3 > 100 µM | HOP-92 > 100 µM | SK-MEL-5 38.5 µM | MDA-N > 100 µM | MCF7 > 100 µM | SK-MEL-28 > 100 µM | LOX IMVI > 100 µM | OVCAR-8 > 100 µM | NCI-H460 > 100 µM | HCT-116 > 100 µM | NCI/ADR-RES > 100 µM | UACC-257 > 100 µM | K562 > 100 µM

CCOC(=O)Oc1cc2c(ccn2C)c2c1c1ccccc1n2C(=O)OCC
inactive: RPMI-8226 > 100 µM | PC-3 > 100 µM | OVCAR-4 > 100 µM | TK-10 > 100 µM | EKVX > 100 µM | SF-539 > 100 µM | ACHN > 100 µM | OVCAR-3 > 100 µM | HOP-92 > 100 µM | SK-MEL-5 > 100 µM | MDA-N > 100 µM | MCF7 > 100 µM | SK-MEL-28 > 100 µM | LOX IMVI > 100 µM | OVCAR-8 > 100 µM | NCI-H460 > 100 µM | HCT-116 > 100 µM | NCI/ADR-RES > 100 µM | UACC-257 > 100 µM | K562 > 100 µM

O=C(O)Cc1ccc(Oc2nc3ccccc3nc2-c2cccs2)cc1
inactive: RPMI-8226 33.1 µM | PC-3 46.3 µM | OVCAR-4 51.1 µM | TK-10 95.1 µM | EKVX 32.4 µM | SF-539 79.4 µM | ACHN 56.6 µM | OVCAR-3 48.4 µM | HOP-92 34.3 µM | SK-MEL-5 72.9 µM | MDA-N 82.2 µM | MCF7 38.5 µM | SK-MEL-28 60.4 µM | LOX IMVI 40.6 µM | OVCAR-8 71.9 µM | NCI-H460 50.7 µM | HCT-116 54.6 µM | NCI/ADR-RES 60.5 µM | UACC-257 > 100 µM | K562 99.3 µM

O=C(N/N=C\c1ccccc1)Nc1cccc2ccccc12
inactive: RPMI-8226 > 100 µM | PC-3 24.4 µM | OVCAR-4 33.5 µM | TK-10 42.9 µM | EKVX 36.1 µM | SF-539 50.4 µM | ACHN 18.1 µM | OVCAR-3 > 100 µM | HOP-92 40.5 µM | SK-MEL-5 12.1 µM | MDA-N 25.1 µM | MCF7 > 10 µM | SK-MEL-28 21.7 µM | LOX IMVI 44.2 µM | OVCAR-8 27.9 µM | NCI-H460 27.7 µM | HCT-116 35.9 µM | NCI/ADR-RES 87.7 µM | UACC-257 78.2 µM | K562 > 100 µM

CSC(SC)=C(C(=O)c1ccc(Cl)cc1)n1c(=O)sc2cc(Br)ccc21
inactive: RPMI-8226 > 100 µM | PC-3 > 100 µM | OVCAR-4 50.8 µM | TK-10 > 100 µM | EKVX > 100 µM | SF-539 > 100 µM | ACHN > 100 µM | OVCAR-3 > 100 µM | HOP-92 31.5 µM | SK-MEL-5 > 100 µM | MDA-N > 100 µM | MCF7 > 100 µM | SK-MEL-28 > 100 µM | LOX IMVI > 100 µM | OVCAR-8 > 100 µM | NCI-H460 > 100 µM | HCT-116 51.3 µM | NCI/ADR-RES > 100 µM | UACC-257 > 100 µM | K562 36.5 µM

CC1=C(C(=O)OC2CC3CCC2(C)C3(C)C)C2Nc3ccccc3N(C)C2O1 (stereo not given)
inactive: RPMI-8226 2.17 µM | PC-3 2.52 µM | OVCAR-4 1.67 µM | TK-10 4.07 µM | EKVX 5.12 µM | SF-539 3.04 µM | ACHN 2.74 µM | OVCAR-3 2.24 µM | HOP-92 3.22 µM | SK-MEL-5 1.69 µM | MDA-N 1.77 µM | MCF7 2.36 µM | SK-MEL-28 5.02 µM | LOX IMVI 1.71 µM | OVCAR-8 2.37 µM | NCI-H460 1.6 µM | HCT-116 2.79 µM | NCI/ADR-RES 2.99 µM | UACC-257 1.79 µM | K562 3.66 µM
